Data published in patent publication US9981940B2, “Aryl sulfide derivatives and aryl sulfoxide derivatives as acaricides and insecticides” (BAYER CROPSCIENCE AKTIENGESELLSCHAFT, priority 2013, dated 2018).

Assays:
[1] = log P by HPLC (OECD Guideline 117), method [b] neutral range; format: physicochemical; details: HPLC; for logP[b]: method [b] neutral range; for chromatographic logP: reversed-phase C18 HPLC column, neutral range, pH 7.8
Protocol: (§1) The log P values were determined analogously to OECD Guideline 117 (EC Directive 92/69/EEC) by HPLC (high-performance liquid chromatography) using reversed-phase columns (C 18), by the following methods:
[b] The LC-MS determination in the neutral range is effected at pH 7.8 with 0.001 molar aqueous ammonium hydrogencarbonate solution and acetonitrile as eluents; linear gradient from 10% acetonitrile to 95% acetonitrile.

[2] = log P by HPLC (OECD Guideline 117), method [a] acidic range; format: physicochemical; details: for logP[a]: HPLC, method [a] acidic range; for chromatographic logP: reversed-phase C18 HPLC column, acidic range
Protocol: as §1
[a] The LC-MS determination in the acidic range is effected at pH 2.7 with 0.1% aqueous formic acid and acetonitrile (contains 0.1% formic acid) as eluents; linear gradient from 10% acetonitrile to 95% acetonitrile.

[3] = tested on: Boophilus microplus; assay: Boophilus microplus injection test (BOOPMI Inj); format: in vivo; details: application rate of 20 μg/animal, assessed after 7 days by laying of fertile eggs
Protocol: Use Examples Boophilus microplus Injection Test (BOOPMI Inj) • Solvent: dimethyl sulphoxide
To prepare an appropriate active ingredient formulation, 10 mg of active ingredient are mixed with 0.5 ml of solvent and the concentrate is diluted with solvent to the desired concentration.
1 μl of the active ingredient solution is injected into the abdomen of 5 engorged adult female cattle ticks (Boophilus microplus). The animals are transferred into dishes and kept in a climate-controlled room.
The efficacy is assessed after 7 days by laying of fertile eggs. Eggs which are not visibly fertile are stored in a climate-controlled cabinet until the larvae hatch after about 42 days.
An efficacy of 100% means that none of the ticks has laid any fertile eggs; 0% means that all the eggs are fertile.

[4] = tested on: Tetranychus urticae; assay: Tetranychus urticae spray test, OP-resistant (TETRUR); format: in vivo; details: after 6 days; for pest or weed control at 500 g/ha: Tetranychus urticae, 144 h, read-out: efficacy
How it was run: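 Mortality as % efficacy (0% = no mites killed) read 6 days after spraying. Formulation: active ingredient in acetone/dimethylformamide plus emulsifier, diluted with emulsifier-containing water, applied to Phaseolus vulgaris leaf discs carrying every life stage of OP-resistant spider mites.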

[5] = pH 2.7, HPLC method [a], read-out: logP[a]
[6] = pH 2.7, HPLC, pH 2.7, read-out: log P[a]

Cc1cc(F)c(-n2nc(OC(C)C)n(C3CC3)c2=O)cc1SCC(F)(F)F [Example 101]
logP[b] [1]: 3.85
logP[a] [2]: 3.93
efficacy [3]: 100%
efficacy ([4]; application rate of 500 g/ha): 100%

COc1cc(F)c(-n2nc(OCC(F)(F)F)n(C3CC3)c2=O)cc1[S+]([O-])CC(F)(F)F (racemic) [Example 385]
logP[b] [1]: 2.74
logP[a] [2]: 2.80
efficacy [3]: 100%

Cc1nn(-c2cc(SCC(F)(F)F)c(C)cc2F)c(=O)o1 [Example 448, 3-{2-Fluoro-4-methyl-5-[(2,2,2-trifluoroethyl)sulphanyl]phenyl}-5-methyl-1,3,4-oxadiazol-2(3H)-one]
chromatographic logP [1]: 3.09
chromatographic logP [2, 5]: 3.11
chromatographic logP [2, 6]: 3.11
pest or weed control at 500 g/ha ([4]; application rate of 500 g/ha): 100%

Cc1cc(F)c(-n2nc(C)n(N(C)C)c2=O)cc1SCC(F)(F)F [Example 201]
logP[b] [1]: 3.14
logP[a] [2]: 3.17
efficacy ([4]; application rate of 500 g/ha): 100%

Cc1cc(F)c(-n2nc(C3CC3)n(C(C)C)c2=O)cc1[S+]([O-])CC(F)(F)F (racemic) [Example 353]
logP[b] [1]: 2.55
logP[a] [2]: 2.58
efficacy ([4]; application rate of 500 g/ha): 100%

CCC[S+]([O-])c1nn(-c2cc([S+]([O-])CC(F)(F)F)c(C)cc2F)c(=O)n1C (stereo not shown) [Example 246]
logP[b] [1]: 1.95
logP[a] [2]: 1.99
efficacy ([4]; application rate of 500 g/ha): 100%

Cc1cc(F)c(-n2nc(C(C)C)n(N)c2=O)cc1[S+]([O-])CC(F)(F)F (stereo not shown) [Example 204]
logP[b] [1]: 1.95
logP[a] [2]: 1.96
efficacy ([4]; application rate of 500 g/ha): 100%

C=CCn1c(OC)nn(-c2cc(SCC(F)(F)F)c(C)cc2F)c1=O [Example 182]
logP[b] [1]: 3.24
logP[a] [2]: 3.30
efficacy ([4]; application rate of 500 g/ha): 100%

CCn1c(Cl)nn(-c2cc(SCC(F)(F)F)c(C)cc2F)c1=O [Example 434]
logP[b] [1]: 3.40
logP[a] [2]: 3.45
efficacy ([4]; application rate of 500 g/ha): 100%

CCCCOc1nn(-c2cc([S+]([O-])CC(F)(F)F)c(C)cc2F)c(=O)n1C1CC1 (stereo not shown) [Example 124]
logP[b] [1]: 3.20
logP[a] [2]: 3.24
efficacy ([4]; application rate of 100 g/ha): 90%

CSc1nn(-c2cc([S+]([O-])CC(F)(F)F)c(C)cc2F)c(=O)n1C (stereo not shown) [Example 260]
logP[b] [1]: 2.03
logP[a] [2]: 2.07
efficacy ([4]; application rate of 500 g/ha): 100%

Cc1cc(F)c(-n2nc(-c3ccncc3)oc2=O)cc1SCC(F)(F)F [Example 459]
logP[b] [1]: 3.20
logP[a] [2]: 3.20
efficacy ([4]; application rate of 500 g/ha): 90%

Cc1cc(C)c([S+]([O-])CC(F)(F)F)cc1-n1ncn(Cc2ccccc2)c1=O (stereo not shown) [Example 374]
logP[b] [1]: 2.47
logP[a] [2]: 2.50
efficacy ([4]; application rate of 500 g/ha): 90%

O=c1n(-c2cc([S+]([O-])CC(F)(F)F)c(Cl)cc2F)nc(OCC(F)(F)F)n1C1CC1 (racemic) [Example 382]
logP[b] [1]: 3.13
logP[a] [2]: 3.22
efficacy ([4]; application rate of 500 g/ha): 100%

Cc1cc(F)c(-n2nc(C3CCC3)n(C3CC3)c2=O)cc1SCC(F)(F)F [Example 87]
logP[b] [1]: 3.77
logP[a] [2]: 3.85
efficacy ([4]; application rate of 500 g/ha): 100%

CC=Cc1nn(-c2cc([S+]([O-])CC(F)(F)F)c(C)cc2F)c(=O)n1C1CC1 (racemic) [Example 82]
logP[b] [1]: 2.42
logP[a] [2]: 2.48
efficacy ([4]; application rate of 500 g/ha): 100%

Cc1cc(F)c(-n2nc(C)n(-c3ccccc3)c2=O)cc1[S+]([O-])CC(F)(F)F (racemic) [Example 356]
logP[b] [1]: 2.35
logP[a] [2]: 2.38
efficacy ([4]; application rate of 500 g/ha): 100%

Cc1cc(F)c(-n2nc(OCc3ccccc3)n(C)c2=O)cc1[S+]([O-])CC(F)(F)F (stereo not shown) [Example 177]
logP[b] [1]: 2.85
logP[a] [2]: 2.92
efficacy ([4]; application rate of 100 g/ha): 100%

Cc1cc(F)c(-n2nc(C3CC3)n(N(C)C)c2=O)cc1[S+]([O-])CC(F)(F)F (stereo not shown) [Example 197, 5-Cyclopropyl-4-(dimethylamino)-2-{2-fluoro-4-methyl-5-[(2,2,2-trifluoroethyl)sulphinyl]phenyl}-2,4-dihydro-3H-1,2,4-triazol-3-one]
chromatographic logP [1]: 2.59
chromatographic logP [2, 5]: 2.6
chromatographic logP [2, 6]: 2.6
pest or weed control at 500 g/ha ([4]; application rate of 500 g/ha): 100%

Cc1cc(F)c(-n2nc(C)n(N(C)C)c2=O)cc1[S+]([O-])CC(F)(F)F (stereo not shown) [Example 210]
logP[b] [1]: 2.09
logP[a] [2]: 2.09
efficacy ([4]; application rate of 500 g/ha): 100%

CCn1c(OC)nn(-c2cc(SCC(F)(F)F)c(C)cc2F)c1=O [Example 180]
logP[b] [1]: 3.10
logP[a] [2]: 3.16
efficacy ([4]; application rate of 500 g/ha): 100%

Cc1cc(F)c(-n2nc(C(F)(F)F)n(C(C)(C)C)c2=O)cc1SCC(F)(F)F [Example 67]
logP[b] [1]: 4.66
logP[a] [2]: 4.78
efficacy ([4]; application rate of 500 g/ha): 90%

CCCSc1nn(-c2cc(SCC(F)(F)F)c(C)cc2F)c(=O)n1C [Example 277]
logP[b] [1]: 3.86
logP[a] [2]: 3.90
efficacy ([4]; application rate of 500 g/ha): 100%

Cc1cc(F)c(-n2nc(OCC(C)C)n(C)c2=O)cc1[S+]([O-])CC(F)(F)F (stereo not shown) [Example 152]
logP[b] [1]: 2.83
logP[a] [2]: 2.90
efficacy ([4]; application rate of 500 g/ha): 90%

Cc1cc(F)c(-n2nc(C3CC3)n(C(C)C)c2=O)cc1SCC(F)(F)F [Example 347]
logP[b] [1]: 3.63
logP[a] [2]: 3.70
efficacy ([4]; application rate of 500 g/ha): 100%

Cc1cc(F)c(-n2nc(C3CC3)n(N)c2=O)cc1SCC(F)(F)F [Example 196]
logP[b] [1]: 2.61
logP[a] [2]: 2.67
efficacy ([4]; application rate of 500 g/ha): 100%

Cc1cc(F)c(-n2nc(C(F)(F)F)n(CC(F)(F)F)c2=O)cc1SCC(F)(F)F [Example 55]
logP[b] [1]: 4.11
logP[a] [2]: 4.22
efficacy ([4]; application rate of 500 g/ha): 90%

Cc1cc(F)c(-n2nc(OC(C)C)n(C)c2=O)cc1[S+]([O-])CC(F)(F)F (stereo not shown) [Example 166]
logP[b] [1]: 2.44
logP[a] [2]: 2.48
efficacy ([4]; application rate of 500 g/ha): 90%

Cc1cc(F)c(-n2nc(OCC3CC3)n(C3CC3)c2=O)cc1SCC(F)(F)F [Example 134]
logP[b] [1]: 3.90
logP[a] [2]: 3.99
efficacy ([4]; application rate of 500 g/ha): 90%

Cc1cc(F)c(-n2nc(OC3CCCCC3)n(C)c2=O)cc1SCC(F)(F)F [Example 153]
logP[b] [1]: 4.44
logP[a] [2]: 4.50
efficacy ([4]; application rate of 500 g/ha): 100%

CCSc1nn(-c2cc([S+]([O-])CC(F)(F)F)c(C)cc2F)c(=O)n1CC (racemic) [Example 293]
logP[b] [1]: 2.72
logP[a] [2]: 2.76
efficacy ([4]; application rate of 500 g/ha): 90%

COc1nn(-c2ccc(C(F)(F)F)c(SCC(F)(F)F)c2)c(=O)n1C1CC1 [Example 144]
logP[b] [1]: 3.85
logP[a] [2]: 4.14
efficacy ([4]; application rate of 500 g/ha): 90%

COc1ccc(-n2nc(C(F)(F)F)n(C3CC3)c2=O)cc1SCC(F)(F)F [Example 52]
logP[b] [1]: 3.79
logP[a] [2]: 3.84
efficacy ([4]; application rate of 500 g/ha): 90%

COCc1nn(-c2cc(SCC(F)(F)F)c(C)cc2F)c(=S)n1C1CC1 [Example 492]
logP[b] [1]: 3.43
logP[a] [2]: 3.49
efficacy ([4]; application rate of 500 g/ha): 100%

Cc1cc(F)c(-n2nc(C(F)(F)F)n(N)c2=O)cc1SCC(F)(F)F [Example 205]
logP[b] [1]: 3.08
logP[a] [2]: 3.15
efficacy ([4]; application rate of 500 g/ha): 100%

Cc1cc(F)c(-n2nc(SC(F)(F)F)n(C)c2=O)cc1[S+]([O-])CC(F)(F)F (racemic) [Example 284]
logP[b] [1]: 2.60
logP[a] [2]: 2.65
efficacy ([4]; application rate of 500 g/ha): 100%

Cc1cc(F)c(-n2nc(SCC(F)F)n(C)c2=O)cc1[S+]([O-])CC(F)(F)F (racemic) [Example 289]
logP[b] [1]: 3.25
logP[a] [2]: 3.30
efficacy ([4]; application rate of 500 g/ha): 100%

CCCCc1nn(-c2cc(SCC(F)(F)F)c(C)cc2F)c(=O)o1 [Example 461]
logP[b] [1]: 4.33
logP[a] [2]: 4.35
efficacy ([4]; application rate of 500 g/ha): 90%

O=c1n(-c2cc([S+]([O-])CC(F)(F)F)c(Br)cc2F)nc(OCC(F)(F)F)n1C1CC1 (racemic) [Example 383]
logP[b] [1]: 3.26
logP[a] [2]: 3.27
efficacy ([4]; application rate of 500 g/ha): 100%

Cc1cc(F)c(-n2nc(OCc3ccccc3)n(C3CC3)c2=O)cc1[S+]([O-])CC(F)(F)F (stereo not shown) [Example 414]
logP[b] [1]: 3.19
logP[a] [2]: 3.24
efficacy ([4]; application rate of 500 g/ha): 100%

Cc1cc(F)c(-n2nc(C3CC3)n(N(C)C)c2=O)cc1SCC(F)(F)F [Example 195, 5-Cyclopropyl-4-(dimethylamino)-2-{2-fluoro-4-methyl-5-[(2,2,2-trifluoroethyl)sulphanyl]phenyl}-2,4-dihydro-3H-1,2,4-triazol-3-one]
chromatographic logP [1]: 3.73
chromatographic logP [2, 5]: 3.75
chromatographic logP [2, 6]: 3.75
pest or weed control at 500 g/ha ([4]; application rate of 500 g/ha): 100%

CCOc1nn(-c2cc([S+]([O-])CC(F)(F)F)c(C)cc2F)c(=O)n1CC (stereo not shown) [Example 409]
logP[b] [1]: 2.44
logP[a] [2]: 2.44
efficacy ([4]; application rate of 500 g/ha): 90%
